For 36 compounds, EC50 results are on record in patent US9708331B2, “Metabotrophic glutamate receptor 5 modulators and methods of use thereof” (SUNOVION PHARMACEUTICALS INC., priority 2011, dated 2017).

This experiment deals with mGluR5 (Homo sapiens, UniProt P41594). The experiment in a line: mGluR5 PAM EC50 (positive allosteric modulator potency). Type of experiment: cell-based.
Chain of mGluR5 (P41594 21-1212): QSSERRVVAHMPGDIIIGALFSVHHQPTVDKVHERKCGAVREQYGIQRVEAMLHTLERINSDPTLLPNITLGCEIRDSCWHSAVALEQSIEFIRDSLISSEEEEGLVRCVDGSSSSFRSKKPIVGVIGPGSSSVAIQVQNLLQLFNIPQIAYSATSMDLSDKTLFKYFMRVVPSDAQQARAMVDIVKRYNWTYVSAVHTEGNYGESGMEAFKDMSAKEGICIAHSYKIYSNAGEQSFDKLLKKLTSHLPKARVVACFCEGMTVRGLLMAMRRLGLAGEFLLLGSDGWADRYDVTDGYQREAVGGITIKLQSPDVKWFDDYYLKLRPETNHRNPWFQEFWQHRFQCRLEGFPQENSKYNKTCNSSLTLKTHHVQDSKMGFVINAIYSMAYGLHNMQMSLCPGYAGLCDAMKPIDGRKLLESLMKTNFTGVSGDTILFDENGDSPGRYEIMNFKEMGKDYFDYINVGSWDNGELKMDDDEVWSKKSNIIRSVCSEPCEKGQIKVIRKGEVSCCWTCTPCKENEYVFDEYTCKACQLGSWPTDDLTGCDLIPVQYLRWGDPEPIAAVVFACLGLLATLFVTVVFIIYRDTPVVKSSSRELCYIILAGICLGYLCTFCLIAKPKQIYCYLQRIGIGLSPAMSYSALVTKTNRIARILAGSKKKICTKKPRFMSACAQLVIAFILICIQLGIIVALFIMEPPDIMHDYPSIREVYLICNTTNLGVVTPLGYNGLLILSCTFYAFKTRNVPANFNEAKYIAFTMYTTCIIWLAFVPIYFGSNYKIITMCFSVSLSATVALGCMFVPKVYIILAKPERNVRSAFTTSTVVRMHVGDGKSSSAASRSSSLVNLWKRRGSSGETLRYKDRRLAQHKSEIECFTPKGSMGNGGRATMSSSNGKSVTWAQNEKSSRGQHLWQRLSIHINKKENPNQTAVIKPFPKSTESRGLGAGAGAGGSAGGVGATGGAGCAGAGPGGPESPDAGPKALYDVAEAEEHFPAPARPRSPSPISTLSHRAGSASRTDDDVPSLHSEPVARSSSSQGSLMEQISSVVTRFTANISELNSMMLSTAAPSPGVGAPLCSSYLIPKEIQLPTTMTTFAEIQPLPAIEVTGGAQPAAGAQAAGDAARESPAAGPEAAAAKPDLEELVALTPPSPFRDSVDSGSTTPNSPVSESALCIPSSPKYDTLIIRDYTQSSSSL
A word on the EC50: it is the concentration needed to bring the measured effect to its halfway point. Turning to `CC1(C)CCc2nc3cc(C#Cc4cc(C#N)ccn4)ccc3c(=O)n2C1` [Example 2.25b, 2-((8,8-dimethyl-11-oxo-7,8,9,11-tetrahydro-6H-pyrido[2,1-b]quinazolin-3-yl)ethynyl)isonicotinonitrile], the EC50 was less than 10 nM. The result for `CC1(C)CCC2Cn3c(nc4cc(C#Cc5ccccn5)ccc4c3=O)CN21` (stereo not drawn) [Example 2.26, 3,3-dimethyl-8-(pyridin-2-ylethynyl)-2,3,13,13a-tetrahydro-1H-pyrrolo[1′,2′:4,5] pyrazino[2,1-b]quinazolin-11(5H)-one] reads 100 to 300 nM; that for `CC1(C)CCn2c(nc3c(F)c(C#Cc4ccccn4)ccc3c2=O)C1` [Example 2.30a, 4-fluoro-7,7-dimethyl-3-(pyridin-2-ylethynyl)-8,9-dihydro-6H-pyrido[2,1-b]quinazolin-11(7H)-one], 10 to 30 nM; that for `CC1(C)CCn2c(nc3cc(C#Cc4ccccn4)c(F)cc3c2=O)C1` [Example 2.31a, 2-fluoro-7,7-dimethyl-3-(pyridin-2-ylethynyl)-8,9-dihydro-6H-pyrido[2,1-b]quinazolin-11(7H)-one], 30 to 100 nM. For the compound `C=CC1(F)CCc2nc3cc(C#Cc4ccccn4)ccc3c(=O)n2C1` (stereo not drawn) [Example 2.38, 8-fluoro-3-(pyridin-2-ylethynyl)-8-vinyl-8,9-dihydro-6H-pyrido[2,1-b]quinazolin-11(7H)-one], the EC50 lay within 10 to 30 nM. The compound `CC1(C)CCc2nc3cc(C#Cc4ccc(C#N)cn4)ccc3c(=O)n2C1` [Example 2.39, 6-((8,8-dimethyl-11-oxo-7,8,9,11-tetrahydro-6H-pyrido[2,1-b]quinazolin-3-yl)ethynyl)nicotinonitrile] yielded an EC50 of 10 to 30 nM.

The compound `COc1ccc(C#Cc2ccc3c(=O)n4c(nc3c2)CCC(C)(C)C4)nc1` [Example 2.40, 3-((5-methoxypyridin-2-yl)ethynyl)-8,8-dimethyl-8,9-dihydro-6H-pyrido[2,1-b]quinazolin-11(7H)-one] registered an EC50 of 30 to 100 nM. The result for `Cc1cc(C#Cc2ccc3c(=O)n4c(nc3c2)CCC(C)(C)C4)ccn1` [Example 2.46, 8,8-dimethyl-3-((2-methylpyridin-4-yl)ethynyl)-8,9-dihydro-6H-pyrido[2,1-d]quinazolin-11(7H)-one] reads 10 to 30 nM; that for `Cc1cnc(C#Cc2ccc3c(=O)n4c(nc3c2)CCC(C)(C)C4)s1` [Example 2.50, 8,8-dimethyl-3-((5-methylthiazol-2-yl)ethynyl)-8,9-dihydro-6H-pyrido[2,1-b]quinazolin-11(7H)-one], less than 10 nM; that for `Cc1cc(C#Cc2ccc3c(=O)n4c(nc3c2)CCC(C)(C)C4)sn1` [Example 2.51, 8,8-dimethyl-3-((3-methylisothiazol-5-yl)ethynyl)-8,9-dihydro-6H-pyrido[2,1-b]quinazolin-11(7H)-one], less than 10 nM. The result for `CC1(C)CCc2nc3cc(C#Cc4ncc(F)cn4)ccc3c(=O)n2C1` [Example 2.54, 3-((5-fluoropyrimidin-2-yl)ethynyl)-8,8-dimethyl-8,9-dihydro-6H-pyrido[2,1-b]quinazolin-11(7H)-one] reads 30 to 100 nM.

For `CC1(C)CCc2nc3cc(C#Cc4ccccc4F)ccc3c(=O)n2C1` [Example 2.73, 3-((2-fluorophenyl)ethynyl)-8,8-dimethyl-8,9-dihydro-6H-pyrido[2,1-b]quinazolin-11(7H)-one], the EC50 was in the range of 10 to 30 nM.

For `CC1(C)CCc2nc3cc(C#Cc4ccc(F)cc4)ccc3c(=O)n2C1` [Example 2.75, 3-((4-fluorophenyl)ethynyl)-8,8-dimethyl-8,9-dihydro-6H-pyrido[2,1-b]quinazolin-11(7H)-one], the concentration giving a half-maximal response (EC50) lay within 10 to 30 nM. The result for `CC1(C)CCc2nc3cc(C#Cc4ncccc4F)ccc3c(=O)n2C1` [Example 2.86, 3-((3-fluoropyridin-2-yl)ethynyl)-8,8-dimethyl-8,9-dihydro-6H-pyrido[2,1-b]quinazolin-11(7H)-one] reads less than 10 nM; that for `CC1(C)CCc2nc3cc(C#Cc4cccnc4F)ccc3c(=O)n2C1` [Example 2.87, 3-((2-fluoropyridin-3-yl)ethynyl)-8,8-dimethyl-8,9-dihydro-6H-pyrido[2,1-b]quinazolin-11(7H)-one], less than 10 nM. `CC1(C)CCc2nc3cc(C#Cc4ccc(F)nc4)ccc3c(=O)n2C1` [Example 2.88, 3-((6-fluoropyridin-3-yl)ethynyl)-8,8-dimethyl-8,9-dihydro-6H-pyrido[2,1-b]quinazolin-11(7H)-one] registered an EC50 of less than 10 nM. With `CC1(C)CCc2nc3cc(C#Cc4cncc(F)c4)ccc3c(=O)n2C1` [Example 2.89, 3-((5-fluoropyridin-3-yl)ethynyl)-8,8-dimethyl-8,9-dihydro-6H-pyrido[2,1-b]quinazolin-11(7H)-one] the figure was less than 10 nM. The result for `CC1(C)CCc2nc3cc(C#Cc4cnccc4F)ccc3c(=O)n2C1` [Example 2.90, 3-((4-fluoropyridin-3-yl)ethynyl)-8,8-dimethyl-8,9-dihydro-6H-pyrido[2,1-b]quinazolin-11(7H)-one] reads less than 10 nM. With `CC1(C)CCc2nc3cc(C#Cc4ccncc4F)ccc3c(=O)n2C1` [Example 2.91, 3-((3-fluoropyridin-4-yl)ethynyl)-8,8-dimethyl-8,9-dihydro-6H-pyrido[2,1-b]quinazolin-11(7H)-one] the figure was less than 10 nM; with `CC1(C)CCc2nc3cc(C#Cc4ccnc(F)c4)ccc3c(=O)n2C1` [Example 2.92, 3-((2-fluoropyridin-4-yl)ethynyl)-8,8-dimethyl-8,9-dihydro-6H-pyrido[2,1-b]quinazolin-11(7H)-one], less than 10 nM. Consider `CC1(CO)CCc2nc3cc(C#Cc4ccccn4)ccc3c(=O)n2C1` (stereo not drawn) [Example 2.99, 8-(hydroxymethyl)-8-methyl-3-(pyridin-2-ylethynyl)-8,9-dihydro-6H-pyrido[2,1-b]quinazolin-11(7H)-one], for which the concentration giving a half-maximal response (EC50) lay in the range of 30 to 100 nM. As to `O=c1c2ccc(C#Cc3ccccn3)cc2nc2n1CCC1(CO)CC21` (stereo not drawn) [Example 2.103, 1a-(hydroxymethyl)-8-(pyridin-2-ylethynyl)-1,2,3,10b-tetrahydrocyclopropa[3,4]pyrido [2,1-b]quinazolin-5(1aH)-one], the EC50 lay within 100 to 300 nM. The result for `O=c1c2ccc(C#Cc3ccccn3)cc2nc2n1C[C@H]1CCCN1C2` [Example 2.104, (R)-8-(pyridin-2-ylethynyl)-2,3,13,13a-tetrahydro-1H-pyrrolo[1′,7′:4,5]pyrazino[2,1-b]quinazolin-11(5H)-one] reads 30 to 100 nM; that for `N#Cc1ccnc(C#Cc2ccc3c(=O)n4c(nc3c2)CCCCC4)c1` [Example 3.5, 2-((12-oxo-6,7,8,9,10,12-hexahydroazepino[2,1-b]quinazolin-3-yl)ethynyl)isonicotinonitrile], 10 to 30 nM.

Regarding `O=c1c2ccc(C#Cc3ccccn3)cc2nc2n1CCN1CCC2C1` (stereo not drawn) [Example 3.6, 9-(pyridin-2-ylethynyl)-1,2,5,6-tetrahydro-3,6-methano[1,4]diazocino[8,1-b]quinazolin-12(4H)-one], the EC50 lay in the range of 100 to 300 nM. For the compound `O=c1c2ncc(C#Cc3ccccn3)cc2nc2n1CCCC(C(F)(F)F)C2` (stereo not drawn) [Example 3.8, 3-(pyridin-2-ylethynyl)-7-(trifluoromethyl)-7,8,9,10-tetrahydropyrido[3′,2′:4,5]pyrimido [1,2-a]azepin-12(6H)-one], the EC50 fell in the range of 30 to 100 nM. `O=c1c2ncc(C#Cc3ccccn3)cc2nc2n1CCC(F)(F)CC2` [Example 3.16, 8,8-difluoro-3-(pyridin-2-ylethynyl)-7,8,9,10-tetrahydropyrido[3′,2′:4,5]pyrimido [1,2-a]azepin-12(6H)-one] yielded an EC50 of 100 to 300 nM. `CCC1(F)CCc2nc3cc(C#Cc4ccccn4)ccc3c(=O)n2CC1` (stereo not drawn) [Example 3.17, 8-ethyl-8-fluoro-3-(pyridin-2-ylethynyl)-7,8,9,10-tetrahydroazepino[2,1-b]quinazolin-12(6H)-one] came in with an EC50 of 10 to 30 nM.

`CCC1(F)CCc2nc3cc(C#Cc4ccccn4)cnc3c(=O)n2CC1` (stereo not drawn) [Example 3.18, 8-ethyl-8-fluoro-3-(pyridin-2-ylethynyl)-7,8,9,10-tetrahydropyrido[3′,2′:4,5]pyrimido [1,2-a]azepin-12(6H)-one] came in with an EC50 of 30 to 100 nM. The result for `CC1CCc2nc3cc(C#Cc4cc(C#N)ccn4)ccc3c(=O)n2CC1` (stereo not drawn) [Example 3.19, 2-((8-methyl-12-oxo-6,7,8,9,10,12-hexahydroazepino[2,1-b]quinazolin-3-yl)ethynyl)isonicotinonitrile] reads 30 to 100 nM. The result for `Cc1cc(C#Cc2ccccn2)cc2nc3n(c(=O)c12)CCC(C)CC3` (stereo not drawn) [Example 3.22, 1,8-dimethyl-3-(pyridin-2-ylethynyl)-7,8,9,10-tetrahydroazepino[2,1-b]quinazolin-12(6H)-one] reads 30 to 100 nM.

Take `COC1CCc2nc3cc(C#Cc4ccccn4)cnc3c(=O)n2CC1` (stereo not drawn) [Example 3.23, 8-methoxy-3-(pyridin-2-ylethynyl)-7,8,9,10-tetrahydropyrido[3′,2′:4,5]pyrimido [1,2-a]azepin-19(6H)-one]: the EC50 fell in the range of 100 to 300 nM. The result for `CC1(F)CCCc2nc3cc(C#Cc4ccccn4)cnc3c(=O)n2C1` (stereo not drawn) [Example 3.25, 9-fluoro-9-methyl-3-(pyridin-2-ylethynyl)-7,8,9,10-tetrahydropyrido[3′,2′:4,5]pyrimido [1,2-a]azepin-12(6H)-one] reads 100 to 300 nM; that for `O=c1c2ncc(C#Cc3ccccn3)cc2nc2n1CC(F)(F)CCC2` [Example 3.26, 9,9-difluoro-3-(pyridin-2-ylethynyl)-7,8,9,10-tetrahydropyrido[3′,2′:4,5]pyrimido [1,2-a]azepin-12(6H)-one], 30 to 100 nM.

For `O=c1c2ccc(C#Cc3ccccn3)cc2nc2n1CC1CC(F)(F)CN1CC2` (stereo not drawn) [Example 3.33a, 2,2-difluoro-9-(pyridin-2-ylethynyl)-2,3,5,6,14,14a-hexahydropyrrolo[2′,1′:3,4][1,4] diazepino[7,1-b]quinazolin-12(1H)-one], the EC50 was in the range of 30 to 100 nM.

`CC12CCCN1CCc1nc3cc(C#Cc4ccccn4)ccc3c(=O)n1C2` (stereo not drawn) [Example 3.34, 14a-methyl-9-(pyridin-2-ylethynyl)-2,3,5,6,14,14a-hexahydropyrrolo[2′,1′:3,4][1,4] diazepino[7,1-b]quinazolin-12(1H)-one] showed a half-maximal effective concentration (EC50) of 300 to 1000 nM.
